Results from patent US11400088B2, “Uses of compound in preparation of drugs for treating brain glioma” (BEIJING PEARL BIOTECHNOLOGY LIMITED LIABILITY COMPANY, priority 2015, dated 2022).

Tests used:
[1] = tested on: PCDH-ZM2-2 expressing cells (U87); test: MTT inhibition of glioblastoma cell proliferation, ZM2-2 fusion protein expressing cells; type: cell-based; conditions: Homo sapiens, 72 hours, read-out: Inhibitory activities (IC50, μM) of tested compounds on cells
Excerpt: (§1) First, a lentiviral vector PCDH (PCDH-EF1-MCS-T2A-Puro, SBI, product No.: CD510B-1, structure shown in FIG. 4) was used, and the nucleotide sequence as shown by SEQ ID NO: 7 or SEQ ID NO: 8 was cloned into the vector according to the instructions thereof, to prepare expression vectors which expressed fusion proteins respectively represented by SEQ ID NO: 3 and SEQ ID NO: 4. The expression vectors were respectively named and marked as “PCDH-ZM1-2” and “PCDH-ZM2-2”. Then, a viral packaging plasmid (SBI, product No. LV500A-1) was used to co-infect 293T cells with one of the vectors to prepare a lentivirus. The same method was performed to package the lentiviral vector PCDH and co-infect 293T cells, to prepare a lentivirus with the blank vector, which was named as “PCDH-blank”.
(§2) The U87 cells were infected with any of the lentiviruses as prepared above and screened by applying puromycin (0.5 μg/mL for screening, and 0.2 μg/mL for maintenance) to establish cell models which stably expressed the fusion proteins. The cell models were verified for the expression of the fusion proteins and the transcription of the fusion genes by immunoblotting and reverse transcription PCR, and cell lines which stably expressed fusion proteins ZM1-2 and ZM2-2 respectively were obtained finally and named as “PCDH-ZM1-2 expressing cells” and “PCDH-ZM2-2 expressing cells” respectively. Similarly, U87 cells were infected with the lentivirus PCDH-blank with the blank vector to obtain “PCDH-blank expressing cells” as a blank reference.
(§3) Those U87 cells which were cultured in a large dish and were in a logarithmic stage were washed once with sterile PBS, and then digested with 0.25% trypsin for 2 min. After all cells were digested to detach, complete DMEM medium containing 10% fetal bovine serum (FBS) was used to stop the digestion. The cells were counted and the cell concentration was adjusted to 20,000 cells/ml. Then, the cells were seeded into a Corning 96-well plate (2,000 cells/well) using a multi-channel pipette, and incubated in a 5% CO2 incubator at 37° C. for 24 hours. The compounds to be tested (crizotinib and the compounds represented by formulas A to H) were respectively dissolved in DMSO to prepare stock solutions, and then the stock solutions and the complete medium were used to prepare solutions with different concentrations of medicaments (0, 5, 10, 20, 40, 60, 80, 100 μM). The cells were incubated in the incubator for additional 72 hours, and then 20 μl of 3-(4,5-dimethylthiazole-2)-2,5-diphenyl tetrazolium bromide (MTT) was added into each well. After 1-3 hours in the incubator, the absorbance at 490 nm was determined using a microplate reader. The inhibition rate corresponding to each concentration was calculated, and the value of IC50 was calculated with GraphPad software.

[2] = tested on: human glioma cell line U87; test: MTT inhibition of glioblastoma cell proliferation, U87 initial cells; type: cell-based; conditions: 72 hours, read-out: Inhibitory activities (IC50, μM) of tested compounds on cells
Method: The compound represented by formula A and crizotinib as well as compounds represented by formulas B to H that respectively have a structure similar to the structure of formula A were employed to carry out the experiment of testing the activity of inhibiting glioblastoma cell proliferation.
as §2, §3

[3] = tested on: PCDH-blank expressing cells (U87); test: MTT inhibition of glioblastoma cell proliferation, blank reference cells; type: cell-based; conditions: Homo sapiens, U-87 MG, 72 hours, read-out: Inhibitory activities (IC50, μM) of tested compounds on cells
Excerpt: as §1, §2, §3

[4] = tested on: PCDH-ZM1-2 expressing cells (U87); test: MTT inhibition of glioblastoma cell proliferation, ZM1-2 fusion protein expressing cells; type: cell-based; conditions: Homo sapiens, 72 hours, read-out: Inhibitory activities (IC50, μM) of tested compounds on cells
Excerpt: as §1, §2, §3

[5] = tested on: PCDH-ZM2-2 expressing cells; test: Inhibition of subcutaneous tumor growth in ZM2-2 mice (1); type: in vivo, BALB/c (nu/nu) nude mice; conditions: 10 mg/KG/day by gavage, vs normal saline, FIG. 5
Method: First, a tumor-bearing mouse model was established. BALB/c (nu/nu) maternal nude mice, aged 6-8 weeks, with a weight of about 16-18 g were purchased from Vital River. “PCDH-blank expressing cells” and “PCDH-ZM2-2 expressing cells” prepared in Example 4 were prepared into suspensions of 10^7 cells/ml with PBS respectively. Nude mice sterilized with 75% ethanol were subcutaneously injected with 100 μl of the cell suspensions at the right scapular area, in which the PCDH-blank expressing cells were injected into seven nude mice, and PCDH-ZM2-2 expressing cells were injected into 21 nude mice. […] The tumor size and variations in mouse weight were measured twice a week. […]
When the tumors grew to have a volume of about 100 mm^3, the ZM2-2 mice (1) were divided into three groups according to mean tumor size, including a group of 7 mice which were administered with the compound represented by formula A, a group of 7 mice which were administered with crizotinib, and a control group of 7 mice. […] The tumor size and variations in mouse weight were measured twice a week. The tumor diameter was measured with a vernier caliper, and the equation for calculating tumor volume was: tumor volume=0.5*Length*Width^2.

[6] = tested on: PCDH-blank expressing cells; test: Intracranial tumor model, survival, vector mice (2); type: in vivo, nude mice; conditions: 50 mg/KG weight/day by gavage, over 6 weeks, FIG. 6
Method: (§4) First, a tumor-bearing mouse model was established. “PCDH-blank expressing cells” and “PCDH-ZM2-2 expressing cells” prepared in Example 4 were prepared into suspensions of 10^5 cells/5 μl with PBS respectively. Nude mice sterilized with 75% ethanol were inoculated with […] the cell suspensions. The cell inoculation position (2 mm away on the right side of anterior fontanel, and 2 mm backward) was determined using a brain stereotaxic apparatus for mouse; the injection depth was 3.5 mm and then elevated by 0.6 mm; and 5 μl of cell solutions respectively was injected to each mouse. After injection, the mice were kept still for 1 min, and then received a conventional skin closure. After intracranial tumors were observed, the tumor-bearing mice obtained with the “PCDH-blank expressing cells” were named as “vector mice (2)”, and the tumor-bearing mice obtained with the “PCDH-ZM2-2 expressing cells” were named as “ZM2-2 mice (2)”.
(§5) 8 Vector mice (2) and 8 ZM2-2 mice (2) were respectively administered with the compound represented by the formula A at a dose of 50 mg/KG weight/day. The compound was administrated once a day by gavage. At the same time, another group of 8 ZM2-2 mice (2) were given with normal saline, as a control group. The experiment lasted for over 6 weeks.

[7] = tested on: PCDH-ZM2-2 expressing cells; test: Intracranial tumor model, survival and brain MRI, ZM2-2 mice (2); type: in vivo, nude mice
Method: as §4, §5
The brains of ZM2-2 mice (2) given with the compound represented by formula A were detected by nuclear magnetic resonance imaging on the 16th day after the compound represented by formula A was administered for the first time. […] See results in panel 7C.
Another 8 ZM2-2 mice (2) were also administered with the compound represented by formula A at a dose of 50 mg/KG weight/day. The compound was administrated once a day by gavage. Then, the compound administration was stopped on the 16th day after the first administration, and the brains were detected through nuclear magnetic resonance imaging on the 10th day after the compound withdrawal. […] Results are shown in panel 7D.

SMILES	IC50 [1] [µM]	IC50 [2] [µM]	IC50 [3] [µM]	IC50 [4] [µM]	growth of tumors (tumor volume) [5]	survival of mice [6]	intracranial tumor growth after compound withdrawal by nuclear magnetic resonance imaging ([7]; 50 mg/KG weight/day stopped on 16th day, imaged 10th day after withdrawal, panel 7D)	intracranial tumor size by nuclear magnetic resonance imaging ([7]; 50 mg/KG weight/day, 16th day after first administration, panel 7C)	survival time of mice ([7]; intracranial, 50 mg/KG weight/day by gavage, over 6 weeks, FIG. 6)
C[C@@H](Oc1cc(-c2cnn(C3CCNCC3)c2)cnc1N)c1c(Cl)ccc(F)c1Cl [Crizotinib]	9.76	2.99	3.27	8.26	–	–	–	–	–
Cn1cc2cc(C(F)(F)c3nnc4ccc(-c5cnn(C6CC6)c5)nn34)c(F)cc2n1 [Formula A]	1.83	3.51	2.85	1.34	significantly inhibit the growth of tumors	all survived	resumed rapid growth	obviously became smaller	obviously prolonged the survival time
CNC(=O)c1c(F)cc(-c2ccc3nnc(C(F)(F)c4cc5cn(C)nc5cc4F)n3n2)cc1F [Formula B]	5.59	8.15	6.02	7.63	–	–	–	–	–
Cn1cc2cc(C(F)(F)c3nnc4ccc(-c5ccc(NC(=O)C6CC6)c(F)c5)nn34)c(F)cc2n1 [Formula C]	12.8	4.78	5.79	9.45	–	–	–	–	–
CC(C)n1cc(-c2ccc3nnc(C(F)(F)c4cc5cn(C)nc5cc4F)n3n2)cn1 [Formula E]	21.9	17.2	21.6	32.6	–	–	–	–	–
Cn1cc2cc(C(F)(F)c3nnc4ncc(-c5cnn(C6CC6)c5)cn34)c(F)cc2n1 [Formula G]	15.2	9.07	9.25	6.75	–	–	–	–	–

Further lines, with some results ahead:

IC50 [1] [µM]	IC50 [2] [µM]	IC50 [3] [µM]	IC50 [4] [µM]	SMILES	growth of tumors (tumor volume) [5]	survival of mice [6]	intracranial tumor growth after compound withdrawal by nuclear magnetic resonance imaging ([7]; 50 mg/KG weight/day stopped on 16th day, imaged 10th day after withdrawal, panel 7D)	intracranial tumor size by nuclear magnetic resonance imaging ([7]; 50 mg/KG weight/day, 16th day after first administration, panel 7C)	survival time of mice ([7]; intracranial, 50 mg/KG weight/day by gavage, over 6 weeks, FIG. 6)
7.21	5.56	4.93	5.22	Cn1cc(-c2ccc3nnc(C(F)(F)c4cc5cn(C)nc5cc4F)n3n2)cn1 [Formula D]	–	–	–	–	–
125	64.4	58.8	90.3	Cn1cc2cc(C(F)(F)c3nnc4ccc(-c5cnn(C6CC6)c5)cn34)c(F)cc2n1 [Formula F]	–	–	–	–	–
45.1	25.4	19.4	23.3	Nc1nc2cc(F)c(Cc3nnc4ccc(-c5cnn(C6CC6)c5)nn34)cc2s1 [Formula H]	–	–	–	–	–
